{
  "source": "patent US20140369943A1",
  "about": "“COMPOSITIONS COMPRISING ISOSORBIDE MONOESTERS AND HALOGENATED ANTIMICROBIAL ACTIVE COMPOUNDS” (CLARIANT INTERNATIONAL LTD., priority 2011, published 2014)",
  "key": {"[1]": {"system": "bacteria, fungi and yeasts", "test": "antimicrobial activity, overall statements in words", "type": "cell-based", "procedure": "(§1) Below, the antimicrobial efficacy of a composition according to the invention consisting of 20% by weight of isorbide caprylate 1 and 80% by weight of a 10% by weight strength solution of 2-bromo-2-nitropropane-1,3-diol (bronopol) in water against bacteria, fungi and yeasts is examined (hereinbelow, the composition is referred to as “composition A”). For the tests with bacteria, composition A was diluted with butyl polyglycol and then, at 50° C., added to liquid CASO agar (casein-peptone agar) buffered to pH 7 (+1-0.2) in various concentrations (hereinbelow referred to as compositions B1, B2, etc.). For the tests with fungi and yeasts, composition A was diluted with butyl polyglycol and then added to liquid Sabouraud 4% dextrose agar buffered to pH 5.6 (+1-0.2) in various concentrations (hereinbelow referred to as compositions PH1, PH2, etc.). The compositions B1, B2, etc. and PH1, PH2 etc. were each poured into Petri dishes and each inoculated with identical amounts of bacteria, fungi and yeasts. The minimum inhibitory concentration (MIC) is the concentration at which inhibition of the growth of the bacteria, fungi and yeasts in the compositions B1, B2, etc. and PH1, PH2, etc. occurs."}, "[2]": {"system": "bacteria, fungi and yeasts", "conditions": "general statement, no data given, cited from earlier work"}, "Pseudomonas oleovorans": {"system": "Pseudomonas oleovorans", "test": "MIC determination in agar (antimicrobial efficacy)", "type": "cell-based", "conditions": "MIC of bronopol alone, CASO agar pH 7, corrected for dilution", "procedure": "(§2) Below, the antimicrobial efficacy of a composition according to the invention consisting of 20% by weight of isorbide caprylate 1 and 80% by weight of a 10% by weight strength solution of 2-bromo-2-nitropropane-1,3-diol (bronopol) in water against bacteria, fungi and yeasts is examined (hereinbelow, the composition is referred to as “composition A”). For the tests with bacteria, composition A was diluted with butyl polyglycol and then, at 50° C., added to liquid CASO agar (casein-peptone agar) buffered to pH 7 (+1-0.2) in various concentrations (hereinbelow referred to as compositions B1, B2, etc.). For the tests with fungi and yeasts, composition A was diluted with butyl polyglycol and then added to liquid Sabouraud 4% dextrose agar buffered to pH 5.6 (+1-0.2) in various concentrations (hereinbelow referred to as compositions PH1, PH2, etc.). […]\n(§3) The minimum inhibitory concentrations for the pure substances isosorbide caprylate 1 and bronopol were determined analogously.\n(§4) The values determined for the minimum inhibitory concentrations “MIC mixture”, stated in Table 1 below, are based on the concentrations of composition A.\n(§5) The values determined for the minimum inhibitory concentrations “QA” and “QB”, stated in Table 1 below, have already been corrected for the dilution effect of the water and the butyl polyglycol. […]"}, "Staphylococcus aureus": {"system": "Staphylococcus aureus", "test": "MIC determination in agar (antimicrobial efficacy)", "type": "cell-based", "conditions": "MIC of bronopol alone, CASO agar pH 7, corrected for dilution", "procedure": "as §2, §3, §4, §5"}, "Klebsiella pneumoniae": {"system": "Klebsiella pneumoniae", "test": "MIC determination in agar (antimicrobial efficacy)", "type": "cell-based", "conditions": "MIC of bronopol alone, CASO agar pH 7, corrected for dilution", "procedure": "as §1, §3, §4\n(§6) The values determined for the minimum inhibitory concentrations “QA” and “QB”, stated in Table 1 below, have already been corrected for the dilution effect of the water and the butyl polyglycol.\n(§7) Kull et al., Applied Microbiology 1961, 9, 538 using the formula below: […]\n(§8) where • Qa is the minimum inhibitory concentration of isosorbide caprylate 1 in the mixture employed, • QA is the minimum inhibitory concentration of isosorbide caprylate 1, • Qb is the minimum inhibitory concentration of bronopol in the mixture employed and • QB is the minimum inhibitory concentration of bronopol.\n(§9) The values for Qa and Qb are determined from the values for the mixtures (“MIC mixture”) by multiplying the minimum inhibitory concentrations determined for Qa with the factor 0.2 and for Qb with the factor 0.08, because of the proportions of the ingredients—20% by weight of isosorbide caprylate 1 and 8% by weight of bronopol—in composition A according to the invention examined.\n(§10) If an SE value >1 is obtained, an antagonistic effect is present."}, "Enterobacter aerogenes": {"system": "Enterobacter aerogenes", "test": "MIC determination in agar (antimicrobial efficacy)", "type": "cell-based", "conditions": "MIC of bronopol alone, CASO agar pH 7, corrected for dilution", "procedure": "as §1, §3, §4, §6, §7, §8, §9, §10"}, "Fusarium solani": {"system": "Fusarium solani", "test": "MIC determination in agar (antimicrobial efficacy)", "type": "cell-based", "conditions": "MIC of bronopol alone, Sabouraud 4% dextrose agar pH 5.6, corrected for dilution", "procedure": "as §1, §3, §4, §6, §7, §8, §9, §10"}, "Proteus vulgaris": {"system": "Proteus vulgaris", "test": "MIC determination in agar (antimicrobial efficacy)", "type": "cell-based", "conditions": "MIC of bronopol alone, CASO agar pH 7, corrected for dilution", "procedure": "as §1, §3, §4, §6, §7, §8, §9, §10"}, "Citrobacter freundii": {"system": "Citrobacter freundii", "test": "MIC determination in agar (antimicrobial efficacy)", "type": "cell-based", "conditions": "MIC of bronopol alone, CASO agar pH 7, corrected for dilution", "procedure": "as §1, §3, §4, §6, §7, §8, §9, §10"}, "Escherichia coli": {"system": "Escherichia coli", "test": "MIC determination in agar (antimicrobial efficacy)", "type": "cell-based", "conditions": "MIC of bronopol alone, CASO agar pH 7, corrected for dilution", "procedure": "as §1, §3, §4, §6, §7, §8, §9, §10"}, "Pseudomonas aeruginosa": {"system": "Pseudomonas aeruginosa", "test": "MIC determination in agar (antimicrobial efficacy)", "type": "cell-based", "conditions": "MIC of bronopol alone, CASO agar pH 7, corrected for dilution", "procedure": "as §1, §3, §4, §6, §7, §8, §9, §10"}, "Candida albicans": {"system": "Candida albicans", "test": "MIC determination in agar (antimicrobial efficacy)", "type": "cell-based", "conditions": "MIC of bronopol alone, Sabouraud 4% dextrose agar pH 5.6, corrected for dilution", "procedure": "as §1, §3, §4, §6, §7, §8, §9, §10"}, "Penicillium funicolosium": {"system": "Penicillium funicolosium", "test": "MIC determination in agar (antimicrobial efficacy)", "type": "cell-based", "conditions": "MIC of bronopol alone, Sabouraud 4% dextrose agar pH 5.6, corrected for dilution", "procedure": "as §1, §3, §4, §6, §7, §8, §9, §10"}, "Penicillium minioluteum": {"system": "Penicillium minioluteum", "test": "MIC determination in agar (antimicrobial efficacy)", "type": "cell-based", "conditions": "MIC of bronopol alone, Sabouraud 4% dextrose agar pH 5.6, corrected for dilution", "procedure": "as §1, §3, §4, §6, §7, §8, §9, §10"}, "Aspergillus terreus": {"system": "Aspergillus terreus", "test": "MIC determination in agar (antimicrobial efficacy)", "type": "cell-based", "conditions": "MIC of bronopol alone, Sabouraud 4% dextrose agar pH 5.6, corrected for dilution", "procedure": "as §1, §3, §4, §6, §7, §8, §9, §10"}, "Aspergillus brasiliensis": {"system": "Aspergillus brasiliensis", "test": "MIC determination in agar (antimicrobial efficacy)", "type": "cell-based", "conditions": "MIC of bronopol alone, Sabouraud 4% dextrose agar pH 5.6, corrected for dilution", "procedure": "as §1, §3, §4, §6, §7, §8, §9, §10"}},
  "note": "Entries after “also recorded” stand apart in the source; their conditions may differ. Like-named read-outs stand apart in the source and are kept apart here.",
  "data": [
    {"molecule": "isosorbide monocaprylate", "values": [
      {"measurement": "antimicrobial activity", "setting": "[1]; concluded from activity of isosorbide caprylate 1 and inactivity of its other constituents", "result": "significant antimicrobial activity"}
    ]},
    {"molecule": "CCCCCCCC(=O)O", "note": "[caprylic acid]", "values": [
      {"measurement": "antimicrobial efficacy as constituent of isosorbide caprylate 1", "setting": "[1]; present in an amount of only 0.4% by weight", "result": "so low that it is negligible; also recorded: lack of antimicrobial activity"},
      {"measurement": "antimicrobial activity", "setting": "[2]; at a pH of 6 or above", "result": "no antimicrobial activity"},
      {"measurement": "antimicrobial efficacy", "setting": "[2]", "result": "antimicrobially effective"}
    ]},
    {"molecule": "O=[N+]([O-])C(Br)(CO)CO", "note": "[bronopol, 2-bromo-2-nitropropane-1,3-diol]", "values": [
      {"measurement": "QB, meas.", "setting": "Pseudomonas oleovorans", "result": 50, "unit": "ppm"},
      {"measurement": "QB, meas.", "setting": "Staphylococcus aureus", "result": 75, "unit": "ppm"},
      {"measurement": "QB, meas.", "setting": "Klebsiella pneumoniae", "result": 50, "unit": "ppm"},
      {"measurement": "QB, meas.", "setting": "Enterobacter aerogenes", "result": 75, "unit": "ppm"},
      {"measurement": "QB, meas.", "setting": "Fusarium solani", "result": 500, "unit": "ppm"},
      {"measurement": "QB, meas.", "setting": "Proteus vulgaris", "result": 50, "unit": "ppm"},
      {"measurement": "QB, meas.", "setting": "Citrobacter freundii", "result": 50, "unit": "ppm"},
      {"measurement": "QB, meas.", "setting": "Escherichia coli", "result": 50, "unit": "ppm"},
      {"measurement": "QB, meas.", "setting": "Pseudomonas aeruginosa", "result": 75, "unit": "ppm"},
      {"measurement": "QB, meas.", "setting": "Candida albicans", "result": 500, "unit": "ppm"},
      {"measurement": "QB, meas.", "setting": "Penicillium funicolosium", "result": 150, "unit": "ppm"},
      {"measurement": "QB, meas.", "setting": "Penicillium minioluteum", "result": 500, "unit": "ppm"},
      {"measurement": "QB, meas.", "setting": "Aspergillus terreus", "result": 1000, "unit": "ppm"},
      {"measurement": "QB, meas.", "setting": "Aspergillus brasiliensis", "result": 500, "unit": "ppm"}
    ]},
    {"molecule": "O[C@@H]1CO[C@H]2[C@@H]1OC[C@@H]2O", "note": "[isosorbide]", "values": [
      {"measurement": "antimicrobial activity", "setting": "[1]; overall conclusion in words from Tables 1 and 2", "result": "neither isosorbide nor isosorbide dicaprylate are antimicrobially active; also recorded: lack of antimicrobial activity"}
    ]}
  ]
}
